Drawing on ChEMBL document CHEMBL1143682, “Investigation into the P3 binding domain of m-calpain using photoswitchable diazo- and triazene-dipeptide aldehydes: new anticataract agents” (J Med Chem, 2007), this text covers IC50 for two molecules.

One may read the IC50 as the midpoint of a concentration-inhibition curve.

A short description of this experiment: Inhibition of sheep M-calpain by fluorescence based assay. Set-up: species or system Ovis aries.

For the molecule `CC(C)[C@H](NC(=O)c1cccc(/N=N/c2ccccc2)c1)C(=O)N[C@H](C=O)Cc1ccccc1`, half-maximal inhibition (IC50) was put at 170 nM.
As to `CC(C)[C@H](NC(=O)c1ccc(/N=N/c2ccccc2)cc1)C(=O)N[C@H](C=O)Cc1ccccc1`, the IC50 was 35 nM.
